Assay results from US6121512A, “Cytochrome P-450 constructs and method of producing herbicide-resistant transgenic plants” (North Carolina State University, priority 1997, dated 2000).

Legend:
soybean CYP71A10 = target: T1, soybean CYP71A10 (Glycine max, UniProt O48918); test: In vitro herbicide metabolism assay and enzyme kinetics, microsomes of yeast expressing CYP71A10; assay type: biochemical; details: for metabolites formed from the radiolabeled herbicide (TLC): 45 minutes at 27° C., 0.75 mM NADPH, 2.5 mg/ml microsomal protein
T1 construct: microsomes of yeast W(R) overexpressing endogenous P450 reductase
T1 sequence (O48918 1-513): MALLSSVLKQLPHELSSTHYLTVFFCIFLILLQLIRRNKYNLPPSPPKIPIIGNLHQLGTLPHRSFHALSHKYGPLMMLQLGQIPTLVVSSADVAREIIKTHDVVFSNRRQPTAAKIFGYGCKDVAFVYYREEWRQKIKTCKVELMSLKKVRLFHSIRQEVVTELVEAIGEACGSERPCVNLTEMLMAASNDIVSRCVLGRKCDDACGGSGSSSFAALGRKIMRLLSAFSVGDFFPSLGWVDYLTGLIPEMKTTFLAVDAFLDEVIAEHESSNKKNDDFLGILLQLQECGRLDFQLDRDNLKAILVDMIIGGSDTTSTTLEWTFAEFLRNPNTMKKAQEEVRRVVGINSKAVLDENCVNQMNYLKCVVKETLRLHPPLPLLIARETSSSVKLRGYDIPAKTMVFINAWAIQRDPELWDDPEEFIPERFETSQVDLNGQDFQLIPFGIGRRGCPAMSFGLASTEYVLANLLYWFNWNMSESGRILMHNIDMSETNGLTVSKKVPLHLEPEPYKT
T1 sequence (P16603 1-691 partner): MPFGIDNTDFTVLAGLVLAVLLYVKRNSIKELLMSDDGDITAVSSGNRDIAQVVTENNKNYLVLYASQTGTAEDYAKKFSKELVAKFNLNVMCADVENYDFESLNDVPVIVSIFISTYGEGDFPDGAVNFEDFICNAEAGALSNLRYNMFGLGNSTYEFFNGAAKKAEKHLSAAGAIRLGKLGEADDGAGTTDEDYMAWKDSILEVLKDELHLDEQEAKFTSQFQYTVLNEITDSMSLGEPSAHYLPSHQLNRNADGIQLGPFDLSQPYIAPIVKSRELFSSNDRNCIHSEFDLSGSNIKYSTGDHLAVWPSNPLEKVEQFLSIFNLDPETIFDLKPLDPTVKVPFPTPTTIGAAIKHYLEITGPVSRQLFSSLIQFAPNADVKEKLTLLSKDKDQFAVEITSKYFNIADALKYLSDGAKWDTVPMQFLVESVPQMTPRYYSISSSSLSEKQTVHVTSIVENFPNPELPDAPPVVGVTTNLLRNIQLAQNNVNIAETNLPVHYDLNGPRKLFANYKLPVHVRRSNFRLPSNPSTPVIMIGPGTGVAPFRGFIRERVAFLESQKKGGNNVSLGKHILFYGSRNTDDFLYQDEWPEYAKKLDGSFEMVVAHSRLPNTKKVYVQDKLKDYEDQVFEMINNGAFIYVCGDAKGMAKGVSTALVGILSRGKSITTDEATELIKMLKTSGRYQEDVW
Experimental: Yeast transformation was performed as described by Geitz et al., Nucleic Acids Research 20:1425 (1992). Media composition, culturing conditions, galactose induction, and microsomal preparations were conducted according to Pompon et al., Methods Enzymol. 272:51-64 (1995), using a culture volume of 250 ml. Microsomal protein was quantified spectrophotometrically using the method of Waddell, J. Lab. Clin. Med. 48:311-314 (1956), using bovine albumin as a standard. Dithionite-reduced, carbon monoxide difference spectra was obtained as previously outlined (Estabrook and Werringloer, Methods Ennzmol. 52:212-220 (1978)) using a Shimadzu Recording Spectrophotometer UV-240 (Shimadzu, Kyoto, Japan). P-450 protein concentrations of yeast microsomes were calculated using a millimolar extinction coefficient of 91 (Omura and Sato, J. Biol. Chem., 239:2370-2378 (1964)).
Yeast microsomes enriched for a discrete soybean P-450 isozyme were assayed for their capacity to metabolize the ten herbicides and one insecticide listed in Table 3. The reaction mixtures contained 10,000 DPM (100-200 ng) radiolabeled substrate, 0.75 mM NAPDH, 2.5 mg/ml microsomal protein. Total reaction volumes were adjusted to 150 μl with 50 mM phosphate buffer (pH 7.1). The mixtures were incubated under light for 45 minutes at 27° C., arrested with 50 μl acetone and centriftiged at 14 000×g for 2 minutes. […] Radiolabeled bentazon and imazaquin-containing samples were spotted onto 200 micron Whatman LKC18F silica gel reversed-phase plates. All plates were developed in a benzene/acetone 2:1 (v/v) solvent system with the exception of prosulfaron, developed in toluene/acetone/acetic acid, 75:20:5 (v/v/v), and bentazon and imazaquin, developed in methanol/75 mM sodium acetate 40:60 (v/v). The developed plates were scanned with a Bioscan System 400 imaging scanner (Bioscan, Washington, D.C.), and the production of metabolites was determined based on the chromatographic profiles. For microsomes containing the expressed CYP71A10 enzyme, control experiments were also conducted to measure the NADPH-dependency, and the inhibitory effects of CO. CO treatment of the sample was achieved by gentle bubbling of the gas through the reaction mixture for 2 minutes immediately before the assay was initiated by the addition of NADPH.
Substrate conversion was quantified by a combination of TLC analysis and scintillation spectrometry. The location of the metabolic products on the TLC plates was identified using an imaging scanner, the bands were scraped and analyzed by scintillation spectrometry. The amount of metabolite produced was calculated based on specific activity and scintillation counts. Each assay was repeated at least twice. Km and Vmax values were estimated using nonlinear regression analysis.

[1] = test system: excised leaves of transgenic tobacco plant 25/2 progeny (CYP71A10-transformed); test: In vivo herbicide metabolism assay, excised leaves of CYP71A10-transformed tobacco; parameters: species or system Nicotiana tabacum cv SR1; details: for % of herbicide metabolized, CYP71A10-transformed: after 14 hours, 1.2 nmol herbicide, standard error in parentheses, four 25/2 plants; for share of the chlortoluron metabolites recovered from CYP71A10-transformed leaves: 14 hours, TLC
Experimental: (§1) Seeds from primary transgenic tobacco plants transformed with CYP71A10 and control plants transformed with the pBI121 vector were grown in Petri dishes containing MS salts and 100 μg/ml kanamycin. At five weeks post-seeding, kanamycin-resistant plantlets were transplanted into pots containing soil and grown an additional two weeks. Single leaves of approximately 10 cm^2 in size were excised and their petioles inserted into 100 μl of H2 O containing radiolabeled herbicide. The leaves were placed in a growth chamber maintaining a temperature of 27° C. and incubated until the entire volume of the herbicide solution was drawn up by the transpirational stream of the leaves (about 3 hrs). The leaves were subsequently transferred into an Eppendorf tube containing distilled water and further incubated for a total of 14 hours.
(§2) [^14 C]-labeled herbicide was extracted from the leaves by grinding for 5 minutes in 250 μl methanol with a plastic pellet pestle driven by an electric drill. After centrifugation for 3 minutes at 14,000 g, 75μl of the supernatant was spotted on a Whatman K6F silica plate and developed in a solvent system containing chloroforn/ethanol/acetic acid 135:10:15 (v/v/v). The separated herbicide derivatives were visualized using an imaging scanner. Substrate conversion was quantified based on the amount of herbicide absorbed, and the ratios of the parent compound and the produced metabolites determined from the TLC profiles.

[2] = test system: CYP71A10-transformed tobacco; test: Herbicide tolerance, seeds germinated on herbicide medium, CYP71A10-transformed tobacco; assay type: in vivo, Nicotiana tabacum cv SR1; details: for tolerance of line 25/2 to the herbicide: compared with control plants, data not shown
Experimental: (§3) T1 generation seeds from CYP71A10-transformed tobacco and pBI121-transformed control plants were placed onto Petri dishes containing MS salts and linuron (using its commercial formulation LOROX 50 DF) at active ingredient concentrations ranging from 0.25 to 3.0 μM. Chlortoluron was added at 0, 1.0, 5.0 and 10.0 μM concentrations using a 99.5% pure analytical standard. The Petri dishes were incubated in a growth chamber maintaining a constant temperature of 27° C. and a 16/8 hour light/dark cycle. The phytotoxic effects of the treatments were determined visually by comparison to control plants and plants grown in the absence of the herbicide. All treatments were repeated at least twice.

[3] = test system: excised leaves of control tobacco plants transformed with pBI121; test: In vivo herbicide metabolism assay, excised leaves of control tobacco; parameters: species or system Nicotiana tabacum cv SR1; details: for % of herbicide metabolized, Control: after 14 hours, 1.2 nmol herbicide, standard error in parentheses, three pBI121 control plants; for share of the chlortoluron metabolites produced in control leaves: 14 hours, TLC
Experimental: as §1, §2

[4] = test system: wild-type SR1 plants and pBI121-transformed control tobacco plants; test: Herbicide tolerance, seeds germinated on herbicide medium, control tobacco; assay type: in vivo, Nicotiana tabacum cv SR1; details: data not shown
Experimental: as §3

Hill-reaction = details: cited from earlier work
[5] = substrate: CN(C)C(=O)Nc1ccc(Cl)c(Cl)c1; test: cells, lysate or membranes named; details: other: yeast microsomes containing CYP71A10; standard error in parentheses; nonlinear regression; pH 7.1; 27.0 °C
[6] = substrate: CON(C)C(=O)Nc1ccc(Cl)c(Cl)c1; test: In vitro herbicide metabolism assay and enzyme kinetics, microsomes of yeast expressing CYP71A10; assay type: biochemical, soybean (Glycine max); details: other: yeast microsomes containing CYP71A10; standard error in parentheses; nonlinear regression; pH 7.1; 27.0 °C
[7] = substrate: CN(C)C(=O)Nc1cccc(C(F)(F)F)c1; test: as above; assay type: biochemical, soybean (Glycine max); details: other: yeast microsomes containing CYP71A10; standard error in parentheses; nonlinear regression; pH 7.1; 27.0 °C
[8] = substrate: Cc1ccc(NC(=O)N(C)C)cc1Cl; test: as above; assay type: biochemical, soybean (Glycine max); details: other: yeast microsomes containing CYP71A10; standard error in parentheses; nonlinear regression; pH 7.1; 27.0 °C
[9] = yeast microsomes containing CYP71A10, standard error in parentheses

For `[C-]#[O+]` [CO, carbon monoxide], the “reduction of linuron metabolizing activity” value (soybean CYP71A10; linuron as substrate (3.2 μM), CO bubbled through reaction mixture for 2 minutes) was “approximately 37%”.

For `CN(C)C(=O)Nc1ccc(Cl)c(Cl)c1` [Diuron, diuron], the “% of herbicide metabolized, CYP71A10-transformed” value [1] was 49 (7.0) %, the “metabolites formed from the radiolabeled herbicide (TLC)” value (“metabolites formed” for short) (soybean CYP71A10) was “a single metabolite” and the Turnover (soybean CYP71A10; [9]) was 0.4 (0.04) min^-1. The Vmax (soybean CYP71A10; [9]) was 16.8 (1.6) pmol min^-1 mg^-1 protein, the “tolerance of line 25/2 to the herbicide” value [2] was “little tolerance” and the “% of herbicide metabolized, Control” value [3] was 20 (2.0) %.

In the case of `CN(C)C(=O)Nc1cccc(C(F)(F)F)c1` [Fluometuron, fluometuron], the “% of herbicide metabolized, CYP71A10-transformed” value [1] is reported as 91 (4.5) %, the “metabolites formed” value (soybean CYP71A10) is reported as “a single metabolite” and the Turnover (soybean CYP71A10; [9]) is reported as 6.8 (0.24) min^-1. The “tolerance of line 25/2 to the herbicide” value [2] was “little tolerance” and the “% of herbicide metabolized, Control” value [3] was 15 (0.6) %.

In the case of `CON(C)C(=O)Nc1ccc(Cl)c(Cl)c1` [Linuron, linuron], the “% of herbicide metabolized, CYP71A10-transformed” value [1] is reported as 87 (2.0) %, the “metabolites formed” value (soybean CYP71A10) is reported as “two (a major and a minor) metabolites” and the “linuron metabolizing activity with microsomes of yeast expressing only the V60 control plasmid” value (soybean CYP71A10; V-60 control microsomes, no CYP71A10) is reported as “no activity is detected”. For the same molecule, the “linuron metabolites when NADPH is omitted from the reaction” value (soybean CYP71A10; no NADPH) was “no metabolites are observed”, the Turnover (soybean CYP71A10; [9]) was 2.8 (0.27) min^-1 and the “germinated seedlings of plant 25/2 inhibited by the herbicide” value ([2]; 0.5 μM linuron in medium) was “one of 23”. The “number of 20 other independent CYP71A10-expressing lines giving linuron tolerant progeny” value ([2]; 0.5 μM linuron in medium) was 19 lines, the “linuron level to which tolerant 25/2 plants were observed” value ([2]; increasing percentage of plants inhibited with rising concentration) was no more than 2.5 µM and the “growth of wild-type SR1 and pBI121 control plants” value ([4]; 0.25 μM linuron (LOROX 50 DF) in medium) was “severely inhibited”. The “growth of wild-type SR1 and pBI121 control plants” value ([4]; linuron 0.5 μM and higher in medium) was “completely arrested”, the “inhibition of the Hill-reaction relative to N-demethyl linuron” value (Hill-reaction) was 10 fold and the “% of herbicide metabolized, Control” value [3] was 12 (2.6) %.

For `CNC(=O)Nc1ccc(C)c(Cl)c1` [N-demethyl chlortoluron], the “share of the chlortoluron metabolites recovered from CYP71A10-transformed leaves” value [1] was 8%, the “share of the chlortoluron metabolites produced in control leaves” value [3] was “Sixty three” and the “share of the chlortoluron metabolites produced in control leaves” value ([3]; listed as Ndemethyl chlortoluron) was 63%.

In the case of `CN(C)C(=O)Nc1ccc(CO)c(Cl)c1` [ring-methyl hydroxy chlortoluron], the “share of the chlortoluron metabolites recovered from CYP71A10-transformed leaves” value [1] is reported as 47%.

With `Clc1ccc(N2N=NC3C4CC(C5N=NC45)C32)cc1` (centres unmarked) [tetcyclasis] the “effect on linuron metabolizing activity” value (soybean CYP71A10) was “completely abolished”.

B1: soybean CYP71A10 (Glycine max) (protein)
chain: MALLSSVLKQLPHELSSTHYLTVFFCIFLILLQLIRRNKYNLPPSPPKIPIIGNLHQLGTLPHRSFHALSHKYGPLMMLQLGQIPTLVVSSADVAREIIKTHDVVFSNRRQPTAAKIFGYGCKDVAFVYYREEWRQKIKTCKVELMSLKKVRLFHSIRQEVVTELVEAIGEACGSERPCVNLTEMLMAASNDIVSRCVLGRKCDDACGGSGSSSFAALGRKIMRLLSAFSVGDFFPSLGWVDYLTGLIPEMKTTFLAVDAFLDEVIAEHESSNKKNDDFLGILLQLQECGRLDFQLDRDNLKAILVDMIIGGSDTTSTTLEWTFAEFLRNPNTMKKAQEEVRRVVGINSKAVLDENCVNQMNYLKCVVKETLRLHPPLPLLIARETSSSVKLRGYDIPAKTMVFINAWAIQRDPELWDDPEEFIPERFETSQVDLNGQDFQLIPFGIGRRGCPAMSFGLASTEYVLANLLYWFNWNMSESGRILMHNIDMSETNGLTVSKKVPLHLEPEPYKT
notes: microsomes of yeast W(R) overexpressing endogenous P450 reductase
For B1, the Km [5] was 1.5 µM, the Km [6] was 9.8 µM and the Vmax [6] was 125.6 (12.0) pmol min^-1 mg^-1 protein. The Km [7] was 14.9 µM, the Km [8] was 1 µM and the Vmax [8] was 29.4 (2.2) pmol min^-1 mg^-1 protein.
